The assay relates to S. aureus. In words: LIVE/DEAD assay of bacterial membrane integrity. Format: cell-based, Staphylococcus aureus. As to conditions: SYTO 9 / propidium iodide stain. From the text:
Assessing the antibacterial activity of GL13K-loaded MSNs against Staphylococcus aureus (USA300, MRSA strain). Overnight culture of S. aureus, USA300 prepared in tryptic soy broth (TSB, DF0370-17-3, Fisher Scientific) were used for assessing the antibacterial activity of AMP-loaded MSNs. USA300 is one of the primary causatives of implant associated infection and implant failure. The optical density of the overnight culture was adjusted to 0.05 and treated with different concentrations of AMP-loaded MSN and AMP alone and MSN (without AMP) and PBS (vehicle control) was used as positive and negative controls. The bacteria was cultured for 24 h under different conditions and metabolic activity tested using BacTiter-Glo™ microbial cell viability assay. The assay was performed using manufacturer's instruction and metabolic activity was measured by luminescence which was measured using microplate reader (Synergy HT, Biotek). […] FIGS. 7A-7C show metabolic activity of USA300 cultured in presence of AMP-loaded MSNs, MSN alone and AMP added directly to the bacterial suspension. Values on x-axis correspond to the loaded AMP concentration.
Overnight culture of S. aureus was treated the same was using method discussed for FIGS. 7A-7C. A LIVE/DEAD assay was performed to visualize cell colonization of surfaces and membrane integrity of all experimental groups. […]

Where no end group is shown, it is not given here. [ ]: non-standard residue; d: D form.

For the substance “D-GL13K (G[dK][dI][dI][dK][dL][dK][dA][dS][dL][dK][dL][dL]) [AMP]”, the “membrane-compromised bacteria (antibacterial capability)” value is listed as “significant membrane-compromised bacteria”.

The values above are taken from patent publication US20220105234A1, “ADHESIVE FOR OSSEOINTEGRATED PERCUTANEOUS DEVICES” (Regents of the University of Minnesota, priority 2020, published 2022).
